We go through 1 compound from US20030108629A1, “Compositions and methods for prostate and kidney health and disorders, an herbal preparation” (priority 2001, published 2003).

The assay can be described thus: Case report: incontinence person with enlarged prostate. The format is in vivo, human. The following applies: prescribed for enlarged prostate. From the text: The 9-herb composition and Incontinence. Person diagnosed with having an enlarged prostate suffered from frequent-urination problems including increased daily frequency and reduced volume. They had the urge to urinate every two hours and the amount was only a few drops. Their symptoms were attributed to old age. […] They are able to urinate what they consider a normal amount of urine in a steady stream as opposed to the dribbling they experienced prior to taking the 9-herb composition. […] Because they are sleeping better, they have more energy throughout the day.

In the case of `CC(C)(C)NC(=O)[C@H]1CC[C@H]2[C@@H]3CC[C@H]4NC(=O)C=C[C@]4(C)[C@H]3CC[C@]12C` [PROSCAR], the “effect on urination problem” value was “did not alleviate the urination problem”.
